Data published in the supplement of paper PMC11451515.

Assays:
Test in all cases: AUC of viability dose-response curve (% viability x log10 dose units); higher = less sensitive
Conditions in all cases: 48 h
[1] = tested on: NOMO1
How it was run: (§1)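 Seeding of medium-adapted leukemia cells was at 500 or 1000 cells/well in 1536-well plates, followed by 48 h at 37°C with library compounds in DMSO at 11 threefold doses from 47 μM to 0.79 nM. CellTiter-Glo One luminescence was normalised per plate to DMSO and cell-free wells and fitted as a four-parameter log-logistic function of log10 dose. Area under the curve was integrated by trapezoidal rule, with curves exceeding full viability scaled and curves failing quality control removed.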

[2] = tested on: P12-Ichikawa
How it was run: as §1

[3] = tested on: SEM cells
How it was run: as §1

[4] = RPMI 5 mM glucose + 10% dialyzed FBS

Compound | AUC of viability dose-response curve ([1]; HPLM + 10% dialyzed FBS) | AUC of viability dose-response curve ([1]; RPMI 5 mM glucose + 10% FBS) | AUC of viability dose-response curve [1, 4] | AUC of viability dose-response curve ([2]; HPLM + 10% dialyzed FBS) | AUC of viability dose-response curve ([2]; RPMI 5 mM glucose + 10% FBS) | AUC of viability dose-response curve [2, 4] | AUC of viability dose-response curve ([3]; HPLM + 10% dialyzed FBS) | AUC of viability dose-response curve ([3]; RPMI 5 mM glucose + 10% FBS) | AUC of viability dose-response curve [3, 4]
CCNC(=O)C[C@@H]1\N=C(C2=CC=C(Cl)C=C2)/C3=C(C=CC(=C3)OC)[N]4C(=NN=C14)C | 373 | 392 | 388 | 395 | 396 | 388 | 311 | 299 | 303
C#Cc1cccc(Nc2ncnc3cc(OCCOC)c(OCCO)cc23)c1 | 372 | 455 | 455 | 451 | 453 | 451 | 431 | 400 | 417
CC#C[C@]1(O)CC[C@H]2[C@@H]/3CCC/4=C/C(=O)CCC4=C3[C@H](C[C@]12C)C5=CC=C(C=C5)N(C)C | 399 | 364 | 370 | 456 | 422 | 411 | 384 | 426 | 432
O=C1CSC(=O)N1C(CCc1ccncc1)COc1ccc(-c2cccc([N+](=O)[O-])c2)cc1 (stereo unspecified) | 444 | 446 | 454 | 447 | 394 | 436 | 427 | 433 | 467
CCC(=O)O[C@@]1([C@@H](C)C[C@H]2[C@@H]3CCC/4=C/C(=O)/C=C\[C@]4(C)[C@@]3(F)[C@@H](O)C[C@]12C)C(=O)CCl | 411 | 467 | 429 | 325 | 254 | 251 | 339 | 336 | 308
CC(C)(C)/[N+]([O-])=C/c1ccc([S+](=O)([O-])[O][Na])cc1[S+](=O)([O-])[O][Na] | 451 | 445 | 459 | 461 | 451 | 469 | 438 | 461 | 453
C[C@@H]1CC[C@@]2(OC1)O[C@H]3C[C@H]4[C@@H]5C/C=C6/C[C@H](CC[C@]6(C)[C@H]5CC[C@]4(C)[C@H]3[C@@H]2C)O[C@@H]7O[C@H](CO)[C@@H](O[C@@H]8O[C@@H](C)[C@H](O)[C@@H](O)[C@H]8O)[C@H](O)[C@H]7O[C@@H]9O[C@@H](C)[C@H](O)[C@@H](O)[C@H]9O | 452 | 453 | 449 | 450 | 452 | 445 | 440 | 431 | 429
Clc1ccc(C2(c3ccc(-c4cn[nH]c4)cc3)CCNCC2)cc1 | 427 | 389 | 395 | 419 | 369 | 390 | 384 | 445 | 388
CNC(=O)c1cccc(-c2ccc3c(N4CCOC[C@@H]4C)nc(N4CCOC[C@@H]4C)nc3n2)c1 | 343 | 376 | 323 | 370 | 316 | 322 | 305 | 333 | 305
CCOC(=O)Nc1ccc(NCc2ccc(F)cc2)cc1N | 424 | 448 | 445 | 452 | 464 | 451 | 459 | 467 | 470
COc1nc(-c2ccc3c(c2)OCO3)n(-c2ccc(NC(=O)CSc3ccccc3)cc2)n1 | 440 | 449 | 455 | 470 | 454 | 428 | 457 | 443 | 453
O=C1c2c(O)cccc2[C@H]([C@@H]2O[C@H](CO)[C@@H](O)[C@H](O)[C@H]2O)c2cc(CO)cc(O)c21 | 455 | 404 | 431 | 467 | 467 | 465 | 449 | 431 | 441
C[C@H]([C@H](O)CCC(C)(C)O)[C@H]1CC[C@@]2(O)C/3=C/C(=O)[C@@H]4C[C@@H](O)[C@@H](O)C[C@]4(C)[C@H]3CC[C@]12C | 470 | 468 | 476 | 460 | 452 | 470 | 461 | 458 | 474
CO[C@H]1C[C@@H]2CC[C@@H](C)[C@@](O)(O2)C(=O)C(=O)N2CCCC[C@H]2C(=O)O[C@H]([C@H](C)C[C@@H]2CC[C@@H](OP(C)(C)=O)[C@H](OC)C2)CC(=O)[C@H](C)/C=C(\C)[C@@H](O)[C@@H](OC)C(=O)[C@H](C)C[C@H](C)/C=C/C=C/C=C/1C | 452 | 462 | 476 | 453 | 411 | 414 | 382 | 360 | 380
O=C1NC(=O)[C@@H](c2cn3c4c(cccc24)CCC3)[C@@H]1c1c[nH]c2ccccc12 | 367 | 363 | 379 | 358 | 344 | 380 | 345 | 317 | 348
CCC[C@@H]1C[C@@H](C(=O)N[C@@H]([C@H]2O[C@H](SC)[C@H](O)[C@@H](O)[C@H]2O)[C@@H](C)O)N(C)C1.Cl | 428 | 463 | 457 | 448 | 438 | 399 | 471 | 473 | 465
O=[N+]([O-])c1cn2c(n1)OC[C@@H](OCc1ccc(OC(F)(F)F)cc1)C2 | 454 | 459 | 470 | 450 | 453 | 458 | 444 | 466 | 455
C[N]1C=NC=C1[C@@](N)(C2=CC=C(Cl)C=C2)C3=CC=C4N(C)C(=O)\C=C(\C5=CC=CC(=C5)Cl)C4=C3 | 398 | 430 | 401 | 377 | 352 | 376 | 284 | 279 | 342
COc1ccc(Cc2nccc3cc(OC)c(OC)cc23)cc1OC | 453 | 458 | 454 | 462 | 466 | 458 | 469 | 460 | 465
NC(=O)c1ccc(-c2nc(-c3ccc4c(c3)OCCO4)c(-c3ccccn3)[nH]2)cc1 | 449 | 460 | 473 | 470 | 459 | 473 | 451 | 462 | 416
CC1(C)[C@@H](O[C@H]2O[C@H](C(=O)O)[C@@H](O)[C@H](O)[C@H]2O[C@@H]2O[C@H](C(=O)O)[C@@H](O)[C@H](O)[C@H]2O)CC[C@]2(C)[C@H]3C(=O)C=C4[C@@H]5C[C@@](C)(C(=O)O)CC[C@]5(C)CC[C@@]4(C)[C@]3(C)CC[C@@H]12 | 407 | 455 | 452 | 473 | 468 | 470 | 383 | 437 | 450
COCCOC(=O)C/1=C(C)/NC/2=C(C1C3=CC=CC(=C3)O)/C(=O)CC(C2)C4=C(OC)C=CC=C4 (stereo unspecified) | 454 | 469 | 467 | 450 | 451 | 448 | 425 | 415 | 413
COC1=CC=C2Nc3cc(Cl)ccc3C(N=C3C=C(CN4CCCC4)C(=O)C(CN4CCCC4)=C3)=C2N1 | 472 | 459 | 475 | 472 | 468 | 469 | 435 | 449 | 437
Cc1cc(O)c2c3c4c(cc(O)c13)C(C)(C)C(=O)c1c(O)cc(O)c(c1-4)C2=O | 450 | 451 | 462 | 460 | 457 | 454 | 457 | 465 | 450
Cl.c1cnc2cc3c(cc2n1)C1CNCC3C1 | 465 | 470 | 467 | 474 | 444 | 467 | 458 | 444 | 461
CC1SC/2=C(C(O)=O)/C(=O)C3=CC(=C(C=C3N12)N4CCN(CC4)C\C5=C(C)\OC(=O)O5)F (stereo unspecified) | 413 | 456 | 443 | 437 | 449 | 449 | 472 | 442 | 449
Nc1nc(-c2nn(Cc3ccccc3F)c3ncccc23)nc(N)c1N1CCOCC1 | 461 | 458 | 467 | 469 | 463 | 473 | 462 | 458 | 467
O=C(Nc1ccc(OC(F)(F)F)cc1)c1sccc1NCc1ccnc2ccccc12 | 346 | 388 | 395 | 295 | 351 | 363 | 373 | 359 | 395
OC[C@H]1O[C@@H](Oc2ccc(O)cc2)[C@H](O)[C@@H](O)[C@@H]1O | 461 | 426 | 404 | 461 | 421 | 426 | 376 | 390 | 397
